Values quoted from earlier work, collected in US9393230B2, “Pharmaceutical composition on the basis of phyto-nutrients with increased bioavailability, having anti-tumor activity, and method for producing said composition (alternatives)” (Nordic Labs Limited, priority 2012, dated 2016).

O=C(O[C@@H]1Cc2c(O)cc(O)cc2O[C@@H]1c1cc(O)c(O)c(O)c1)c1cc(O)c(O)c(O)c1 [epigallo-3-catechin, epigallocatechol-3-gallate]
solubility in water: water-soluble
